The results in this text go back to patent US20230295260A1, “GLP RECEPTOR AGONISTS” (HEPTARES THERAPEUTICS LIMITED, priority 2020, published 2023).

Entries after “also recorded” stand apart in the source; their conditions may differ. Non-standard residues stand in square brackets, D forms with d. Residues, ends and D or L forms follow the SMILES beside them. *: point of attachment. Malonyl(2,2-Me2,histaminyl) = CC(C)(C(=O)NCCc1cnc[nH]1)C(=O)*; Ala(1H-tetrazol-5-yl) = N[C@@H](Cc1nnn[nH]1)C(=O)O; αMePhe(2-F) = C[C@](N)(Cc1ccccc1F)C(=O)O; Nle = CCCC[C@H](N)C(=O)O; Alloc = C=CCOC(=O)*

In test [1] the target is T1, human GLP2 receptor (Homo sapiens, UniProt O95838).
T1 sequence (O95838 1-553): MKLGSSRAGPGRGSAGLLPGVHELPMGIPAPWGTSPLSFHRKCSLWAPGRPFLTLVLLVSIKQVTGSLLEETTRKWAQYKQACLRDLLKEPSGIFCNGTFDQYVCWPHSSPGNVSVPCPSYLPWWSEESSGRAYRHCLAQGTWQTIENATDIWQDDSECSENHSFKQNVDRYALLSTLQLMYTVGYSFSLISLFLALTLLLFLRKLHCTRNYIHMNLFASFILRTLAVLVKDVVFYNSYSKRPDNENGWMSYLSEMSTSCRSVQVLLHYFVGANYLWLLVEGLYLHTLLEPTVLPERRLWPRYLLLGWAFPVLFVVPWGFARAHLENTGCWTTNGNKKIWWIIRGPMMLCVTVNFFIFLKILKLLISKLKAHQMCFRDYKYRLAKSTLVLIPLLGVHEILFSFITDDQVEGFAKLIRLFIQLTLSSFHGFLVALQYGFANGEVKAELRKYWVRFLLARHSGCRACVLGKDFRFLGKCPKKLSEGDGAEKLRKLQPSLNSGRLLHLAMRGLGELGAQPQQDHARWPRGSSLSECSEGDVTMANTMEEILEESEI
Put plainly: cAMP accumulation assay (HTRF), functional agonism of human GLP2 receptor in HEK cells.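 As to all read-outs here: HEK cells transduced via BacMam to express human GLP2 receptor, agonist-stimulated cAMP measured by HTRF after 45 min at 37 °C in HBSS with 0.5 mM IBMX.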 Particulars: for Emax: HEK293, read-out: Human GLP-2R agonist cAMP Emax. (In general: cAMP levels reflect the balance of adenylyl cyclase and phosphodiesterase activity.)

Test [2] concerns the target T2, mouse GLP1 receptor (Mus musculus, UniProt O35659).
T2 construct: expressed in transfected cells; host or cells: HEK cells, transient transfection with GeneJuice
T2 sequence (O35659 22-463): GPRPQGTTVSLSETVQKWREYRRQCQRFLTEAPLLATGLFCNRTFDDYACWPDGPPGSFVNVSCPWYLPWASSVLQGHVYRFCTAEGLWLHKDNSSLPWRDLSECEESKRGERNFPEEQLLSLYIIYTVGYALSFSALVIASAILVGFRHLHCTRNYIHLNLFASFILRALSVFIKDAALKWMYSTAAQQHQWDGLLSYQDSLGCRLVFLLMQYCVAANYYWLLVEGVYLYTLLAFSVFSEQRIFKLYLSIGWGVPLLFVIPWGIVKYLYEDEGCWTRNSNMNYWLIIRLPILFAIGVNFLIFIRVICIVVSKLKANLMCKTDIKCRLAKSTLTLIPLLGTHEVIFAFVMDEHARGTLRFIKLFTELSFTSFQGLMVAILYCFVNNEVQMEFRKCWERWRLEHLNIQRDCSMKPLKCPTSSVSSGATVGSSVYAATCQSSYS
Put plainly: cAMP accumulation assay (HTRF), functional agonism of mouse GLP1 receptor in HEK cells. Particulars: HEK cells transiently transfected, 45 min 37° C.; for Emax: HEK293, read-out: Mouse GLP-1 R agonist cAMP Emax; for EC50: read-out: Mouse GLP-1 R agonist cAMP pEC50 (converted). It counts as cell-based.

The subject of test [3] is C57BL/6J male mice. Kind of test: Effect on intestinal wet weight in normal mice (FIG. 1). It counts as in vivo, mouse. Particulars: once daily sc 270 nmol/kg (liraglutide iv 200 ug/kg), sacrificed on day 3, vs. vehicle. How it is done: Mice were sacrificed on day 3 and the wet weight of the small intestine was quantified. GLP-2 active peptides show significant enhancement of the small intestinal weight. […] N=6 animals / grp. *p < 0.05 vs. vehicle
C57BL/6J male mice (Charles River, Italy, ~8 weeks) are randomly allocated to the treatment group based on the baseline body weights. Animals are given free access to food and water during the whole duration of the study. Mice are dosed daily with the test compounds via subcutaneous injection. […] The abdominal cavity will be opened and the intestinal tissue is excised carefully to avoid perforation. Tissue from the upper small intestine (15 cm segment from the pylorus) is collected. The bowel is cleaned by flushing through with ice cold PBS to remove any feces.

The target of test [4] is T3, human GLP1 receptor (Homo sapiens, UniProt P43220).
T3 construct: expressed in transfected cells; host or cells: HEK cells, BacMam virus transduction
T3 sequence (P43220 24-463): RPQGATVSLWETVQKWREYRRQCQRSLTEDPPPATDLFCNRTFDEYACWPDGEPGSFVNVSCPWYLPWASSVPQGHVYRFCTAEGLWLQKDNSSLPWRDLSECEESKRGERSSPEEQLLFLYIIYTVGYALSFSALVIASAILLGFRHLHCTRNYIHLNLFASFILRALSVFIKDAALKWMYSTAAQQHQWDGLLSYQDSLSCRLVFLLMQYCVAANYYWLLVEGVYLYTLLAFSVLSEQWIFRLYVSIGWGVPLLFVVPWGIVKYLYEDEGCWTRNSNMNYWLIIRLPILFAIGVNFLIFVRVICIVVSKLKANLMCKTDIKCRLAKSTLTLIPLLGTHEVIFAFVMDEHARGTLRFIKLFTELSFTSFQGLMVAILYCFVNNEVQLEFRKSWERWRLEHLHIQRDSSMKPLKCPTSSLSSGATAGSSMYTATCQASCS
Put plainly: cAMP accumulation assay (HTRF), functional agonism of human GLP1 receptor in HEK cells. It is filed as cell-based. Particulars: HEK cells, human GLP1 receptor BacMam, 45 min 37° C.; for Emax: HEK293, read-out: Human GLP-1R agonist cAMP Emax; for EC50: read-out: Human GLP-1R agonist cAMP pEC50 (converted).

In test [5] the test system is C57BL/6J male mice. Put plainly: Effect on glucose tolerance (OGTT) in normal mice (FIG. 3). It counts as in vivo, mouse. Particulars: mice fasted 6 h, 270 nmol/kg sc 1 hour before 2 g/kg oral glucose (liraglutide 200 ug/kg iv). As for the experimental part:
One hour before glucose challenge, Example 1 or 3 (270 nmol/kg) or vehicle (0.1% Tween80 in PBS) was administered as a single subcutaneous injection. […] Serial blood glucose measurements were taken at baseline and at timepoints post oral glucose challenge. (A) Time course of blood glucose levels. N=6 animals / grp. Mean +/-SEM.
C57BL/6J male mice (Charles River, Italy, ~8w) are fasted for 6 hours on the day of testing with free access to drinking water. Prior to drug dosing, pre-dose blood glucose measurements are taken using a glucometer (ACCU-CHEK performa, Roche Diagnostic GmbH). Animals are dosed with either the vehicle (0.1% Tween80 in PBS) or compound (270 nmol/kg) via subcutaneous injection. […] 1 hour after dosing, mice are given 2 g/kg oral gavage of glucose and blood is sampled at defined time points for analysis of blood glucose levels. Timepoints of sampling: t=0 (prior to glucose dosing), 15 mins, 30 mins, 60 mins, 120 mins and 180 mins.

For test [6], the target named is T4, mouse GLP2 receptor (Mus musculus, UniProt Q5IXF8).
T4 construct: expressed in transfected cells; host or cells: HEK cells, transient transfection with GeneJuice
T4 sequence (Q5IXF8 1-512): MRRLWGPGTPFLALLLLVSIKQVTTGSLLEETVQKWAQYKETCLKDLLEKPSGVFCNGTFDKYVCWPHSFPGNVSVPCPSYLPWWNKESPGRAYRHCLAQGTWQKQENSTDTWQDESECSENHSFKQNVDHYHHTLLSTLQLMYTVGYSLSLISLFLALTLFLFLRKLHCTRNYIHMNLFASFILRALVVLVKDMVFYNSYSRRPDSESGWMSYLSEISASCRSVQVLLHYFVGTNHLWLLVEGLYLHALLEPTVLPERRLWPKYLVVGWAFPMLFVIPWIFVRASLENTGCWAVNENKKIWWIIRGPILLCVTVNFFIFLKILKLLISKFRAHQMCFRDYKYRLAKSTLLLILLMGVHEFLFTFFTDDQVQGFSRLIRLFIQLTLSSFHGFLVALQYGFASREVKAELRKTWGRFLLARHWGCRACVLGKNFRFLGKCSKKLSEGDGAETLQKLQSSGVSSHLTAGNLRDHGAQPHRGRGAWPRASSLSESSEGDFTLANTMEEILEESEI
Kind of test: cAMP accumulation assay (HTRF), functional agonism of mouse GLP2 receptor in HEK cells. It is filed as cell-based. Particulars: HEK cells transiently transfected, 45 min 37° C.; for Emax: HEK293, read-out: Mouse GLP-2R agonist cAMP Emax; for EC50: read-out: Mouse GLP-2R agonist cAMP pEC50 (converted).

For test [7], the system named is C57BL/6J male mice. Put plainly: Dose response effect on intestinal mass in normal mice, 7 day dosing (FIG. 2). It is filed as in vivo, mouse. Particulars: daily sc. How it is done:
The enhancement of the small bowel wet weight (over vehicle) is plotted as a function of the peptide dose. […] N=6 animals I grp.
C57BL/6J male mice (Charles River, Italy, ~8 weeks) are randomly allocated to the treatment group based on the baseline body weights. Animals are given free access to food and water during the whole duration of the study. Mice are dosed daily with the vehicle or test peptides via subcutaneous injection. On day 7, animals are sacrificed and segments from the upper small intestine (15 cm segment from the pylorus) are collected and weighed (see Example B).

As for `C=CCOC(=O)NCCCC[C@H](NC(=O)[C@H](CC(C)C)NC(=O)[C@H](CC(=O)O)NC(=O)[C@H](CC(C)C)NC(=O)[C@@H](NC(=O)[C@@H](NC(=O)[C@@H](Cc1ccccc1)NC(=O)[C@H](CCCC)NC(=O)[C@H](CCC(=O)O)NC(=O)[C@H](CC(=O)O)NC(=O)[C@H](CO)NC(=O)[C@H](Cc1ccccc1)NC(=O)[C@H](CO)NC(=O)CNC(=O)[C@H](Cc1nn[nH]n1)NC(=O)C(C)(C)C(=O)NCCc1c[nH]cn1)[C@@H](C)O)[C@@H](C)CC)C(=O)N[C@@H](C)C(=O)N[C@@H](C)C(=O)N[C@@H](CCCCN)C(=O)N[C@@H](CC(=O)O)C(=O)N[C@@H](Cc1ccccc1)C(=O)N[C@H](C(=O)N[C@@H](CC(N)=O)C(=O)N[C@@H](Cc1c[nH]c2ccccc12)C(=O)N[C@@H](CC(C)C)C(=O)N[C@H](C(=O)N[C@@H](CCC(N)=O)C(=O)N[C@H](C(=O)N[C@@H](CCCCN)C(=O)N[C@H](C(=O)N[C@H](C(=O)N[C@@H](CC(=O)O)C(N)=O)[C@@H](C)O)[C@@H](C)CC)[C@@H](C)O)[C@@H](C)CC)[C@@H](C)CC` [Example 1] ({Malonyl(2,2-Me2,histaminyl)}-[Ala(1H-tetrazol-5-yl)]GSFSDE[Nle][dF]TILDLK(Alloc)AAKDFINWLIQTKITD-NH2), the EC50 in test [1] is 0.01 nM; in test [2], 3.16 nM; in test [4] it was 3.16 nM; in test [6], 0.2 nM. Moreover, the Emax in test [1] amounted to 102%; in test [2], 95.9%; in test [4] it was 94.1%; in test [6], 102%. Also, the “wet weight of the small intestine” value in test [3] is recorded as “superior enhancements in intestinal weight compared to Teduglutide; also recorded: Significant enhancement of intestinal wet weight”. Further, the “peak blood glucose concentration in OGTT” value in test [5] is “significantly reduced”. Further, in test [7], the “enhancement of small bowel wet weight (over vehicle) as a function of dose” value is given as “greater maximal enhancements in small intestinal wet weight compared to Teduglutide; also recorded: dose dependent enhancements in the wet weight of the small intestine”.
`C=CCOC(=O)NCCCC[C@H](NC(=O)[C@H](CC(C)C)NC(=O)[C@H](CC(=O)O)NC(=O)[C@H](CC(C)C)NC(=O)[C@@H](NC(=O)[C@@H](NC(=O)[C@@H](Cc1ccccc1)NC(=O)[C@H](CCCC)NC(=O)[C@H](CCC(=O)O)NC(=O)[C@H](CC(=O)O)NC(=O)[C@H](CO)NC(=O)[C@](C)(Cc1ccccc1F)NC(=O)[C@H](CO)NC(=O)CNC(=O)[C@H](Cc1nn[nH]n1)NC(=O)C(C)(C)C(=O)NCCc1c[nH]cn1)[C@@H](C)O)[C@@H](C)CC)C(=O)N[C@@H](C)C(=O)N[C@@H](C)C(=O)N[C@@H](CCCCN)C(=O)N[C@@H](CC(=O)O)C(=O)N[C@@H](Cc1ccccc1)C(=O)N[C@H](C(=O)N[C@@H](CC(N)=O)C(=O)N[C@@H](Cc1c[nH]c2ccccc12)C(=O)N[C@@H](CC(C)C)C(=O)N[C@H](C(=O)N[C@@H](CCC(N)=O)C(=O)N[C@H](C(=O)N[C@@H](CCCCN)C(=O)N[C@H](C(=O)N[C@H](C(=O)N[C@@H](CC(=O)O)C(N)=O)[C@@H](C)O)[C@@H](C)CC)[C@@H](C)O)[C@@H](C)CC)[C@@H](C)CC` [Example 3] ({Malonyl(2,2-Me2,histaminyl)}-[Ala(1H-tetrazol-5-yl)]GS[αMePhe(2-F)]SDE[Nle][dF]TILDLK(Alloc)AAKDFINWLIQTKITD-NH2): the EC50 in test [1] was 0.0158 nM; in test [2] it was 0.398 nM; in test [4] it was 0.0794 nM; in test [6], 0.501 nM. Besides, the Emax in test [1] amounted to 102%; in test [2], 99.5%; in test [4] it was 99.2%; in test [6], 103%. Also, the “wet weight of the small intestine” value in test [3] is “superior enhancements in intestinal weight compared to Teduglutide; also recorded: Significant enhancement of intestinal wet weight”. In addition, in test [5], the “peak blood glucose concentration in OGTT” value is reported as “significantly reduced”. The “enhancement of small bowel wet weight (over vehicle) as a function of dose” value in test [7] was “greater maximal enhancements in small intestinal wet weight compared to Teduglutide; also recorded: dose dependent enhancements in the wet weight of the small intestine”.

A word on the Emax: it is the size of the effect at its maximum, as opposed to the concentration needed.
